Experimental data as given in ChEMBL document CHEMBL5614438, “CETZOLE Analogs as Potent Ferroptosis Inducers and Their Target Identification Using Covalent/Affinity Probes” (J Med Chem, 2024).
Values belong to the molecule of their own block, whether it stands above or below them. Calls of active or inactive are those of the source. The rule behind the calls is not given here.

How the values were obtained:
[1] = tested on: MDA-MB-231; assay: Cytotoxicity against human MDA-MB-231 cells assessed as reduction in cell viability incubated for 3 days by methylene blue staining based spectrophotometric analysis; type: functional; conditions: MDA-MB-231, 72 h, time 3 day
[2] = tested on: HT-1080; assay: Cytotoxicity against human HT-1080 cells assessed as reduction in cell viability incubated for 3 days by methylene blue staining based spectrophotometric analysis; type: functional; conditions: HT-1080, 72 h, time 3 day
[3] = tested on: NCI-H522; assay: Cytotoxicity against human NCI-H522 cells assessed as reduction in cell viability incubated for 3 days by methylene blue staining based spectrophotometric analysis; type: functional; conditions: NCI-H522, 72 h, time 3 day
[4] = tested on: NCI-H522; assay: Cytotoxicity against human NCI-H522 cells overexpressing GFP-tagged RV assessed as reduction in cell viability incubated for 3 days by methylene blue staining based spectrophotometric analysis; type: functional; conditions: NCI-H522, 72 h, time 3 day
[5] = tested on: NCI-H522; assay: Cytotoxicity against human NCI-H522 cells overexpressing GFP-tagged SLC7A11 assessed as reduction in cell viability incubated for 3 days by methylene blue staining based spectrophotometric analysis; type: functional; conditions: NCI-H522, 72 h, time 3 day
[6] = tested on: U2OS; assay: Cytotoxicity against human U2OS cells assessed as reduction in cell viability incubated for 3 days by methylene blue staining based spectrophotometric analysis; type: functional; conditions: 72 h, time 3 day
[7] = tested on: NCI-H522; assay: Induction of ferroptosis in human NCI-H522 cells assessed as reduction in cell viability at 13.68 uM incubated for 3 days in presence of liproxstatin-1 by methylene blue staining based spectrophotometric analysis; type: functional; conditions: time 3.0 day
[8] = tested on: NCI-H522; assay: Induction of ferroptosis in human NCI-H522 cells assessed as increase in intracellular lipid peroxidation accumulation at 0.36 uM incubated for 6 hrs by C11 BODIPY 581/591 staining based flow cytometry; type: functional, cell-based
[9] = target: Glucose-6-phosphate 1-dehydrogenase (Homo sapiens) (UniProt P11413); assay: Inhibition of G6PD in human HCT-116 cells using G6P as substrate at 100 uM incubated for 20 mins followed by G6P and […]; type: cell-based
[10] = tested on: NCI-H522; assay: Induction of ferroptosis in human NCI-H522 cells assessed as cell death at 0.38 uM incubated for 3 days by methylene blue staining based spectrophotometric analysis relative to control; type: functional; conditions: time 3 day
[11] = tested on: WI-38; assay: Cytotoxicity against human WI-38 cells assessed as reduction in cell viability at 1 uM incubated for 3 days by methylene blue staining based spectrophotometric analysis; type: toxicity; conditions: wi-38, 72 h, time 3 day
[12] = tested on: MEF; assay: Cytotoxicity against mouse MEF cells assessed as reduction in cell viability at 1 uM incubated for 3 days by methylene blue staining based spectrophotometric analysis; type: toxicity; conditions: 72 h, time 3 day
[13] = tested on: NCI-H522; assay: Cytotoxicity against human NCI-H522 cells assessed as reduction in cell viability at 1 uM incubated for 3 days by methylene blue staining based spectrophotometric analysis; type: functional; conditions: time 3.0 day
[14] = target: T1, Peroxiredoxin-4 (Homo sapiens) (UniProt Q13162); assay: Inhibition of PRDX4 (unknown origin)
T1 sequence (whole entry): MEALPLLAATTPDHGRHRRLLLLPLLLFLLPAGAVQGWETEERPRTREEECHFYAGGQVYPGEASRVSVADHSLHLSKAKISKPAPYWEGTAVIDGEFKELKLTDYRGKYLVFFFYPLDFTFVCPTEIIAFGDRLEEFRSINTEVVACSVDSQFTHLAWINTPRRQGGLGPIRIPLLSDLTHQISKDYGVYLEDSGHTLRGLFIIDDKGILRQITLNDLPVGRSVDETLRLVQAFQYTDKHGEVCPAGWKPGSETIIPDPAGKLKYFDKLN

[15] = target: Phospholipid hydroperoxide glutathione peroxidase GPX4 (Homo sapiens) (UniProt P36969); assay: Inhibition of recombinant GPX4 (unknown origin) at 100 uM incubated for 60 mins followed by NADPH addition
[16] = tested on: HT-1080; assay: Cytotoxicity against human HT-1080 cells assessed as reduction in cell viability at 1 uM incubated for 3 days by methylene blue staining based spectrophotometric analysis; type: functional; conditions: time 3.0 day
[17] = target: Glucose-6-phosphate 1-dehydrogenase (Homo sapiens) (UniProt P11413); assay: Inhibition of G6PD in human HCT-116 cells using G6P as substrate assessed as reduction in enzyme activity by measuring absorbance at 100 uM incubated for 20 mins followed by G6P and […]; type: cell-based
[18] = target: Glucose-6-phosphate 1-dehydrogenase (Homo sapiens) (UniProt P11413); assay: Inhibition of G6PD in human HCT-116 cells using G6P as substrate at 25 uM incubated for 20 mins followed by G6P and […]; type: cell-based
[19] = tested on: NCI-H522; assay: Induction of ferroptosis in human NCI-H522 cells assessed as cell death at 0.39 uM incubated for 3 days by methylene blue staining based spectrophotometric analysis relative to control; type: functional; conditions: time 3 day
[20] = tested on: NCI-H522; assay: Induction of ferroptosis in human NCI-H522 cells assessed as increase in intracellular lipid peroxidation accumulation at 0.39 uM incubated for 6 hrs by C11 BODIPY 581/591 staining based flow cytometry; type: functional, cell-based
[21] = tested on: NCI-H522; assay: Induction of ferroptosis in human NCI-H522 cells assessed as increase in intracellular lipid peroxidation accumulation at 7.68 uM incubated for 6 hrs by C11 BODIPY 581/591 staining based flow cytometry; type: functional, cell-based
[22] = tested on: NCI-H522; assay: Induction of ferroptosis in human NCI-H522 cells assessed as reduction in cell viability at 7.68 uM incubated for 3 days in presence of liproxstatin-1 by methylene blue staining based spectrophotometric analysis; type: functional; conditions: time 3.0 day
[23] = tested on: NCI-H522; assay: Induction of cell death in human NCI-H522 cells at 10 uM incubated for 4 to 5 hrs by live cell imaging analysis relative to control; type: functional; conditions: time 4-5 hrs
[24] = tested on: NCI-H522; assay: Induction of cell death in human NCI-H522 cells at 10 uM incubated for 4 to 5 hrs by live cell imaging analysis; type: functional, cell-based; conditions: time 4-5 hrs

Glucose-6-phosphate 1-dehydrogenase (Homo sapiens), sequence (P11413 whole entry): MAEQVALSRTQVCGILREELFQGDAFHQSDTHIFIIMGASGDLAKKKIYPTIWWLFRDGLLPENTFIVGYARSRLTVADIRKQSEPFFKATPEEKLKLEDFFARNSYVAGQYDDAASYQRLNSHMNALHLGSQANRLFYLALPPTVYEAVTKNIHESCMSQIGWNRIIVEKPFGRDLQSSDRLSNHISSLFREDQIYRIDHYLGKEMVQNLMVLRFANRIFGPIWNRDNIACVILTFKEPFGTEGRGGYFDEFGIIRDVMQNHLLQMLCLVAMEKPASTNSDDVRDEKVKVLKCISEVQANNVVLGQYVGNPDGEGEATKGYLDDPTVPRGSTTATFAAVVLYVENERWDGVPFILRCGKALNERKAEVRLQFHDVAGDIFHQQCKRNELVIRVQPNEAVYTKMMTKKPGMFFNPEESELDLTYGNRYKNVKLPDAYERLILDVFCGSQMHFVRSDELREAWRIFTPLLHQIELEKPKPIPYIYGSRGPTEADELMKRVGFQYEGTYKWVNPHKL
Phospholipid hydroperoxide glutathione peroxidase GPX4 (Homo sapiens), sequence (P36969 whole entry): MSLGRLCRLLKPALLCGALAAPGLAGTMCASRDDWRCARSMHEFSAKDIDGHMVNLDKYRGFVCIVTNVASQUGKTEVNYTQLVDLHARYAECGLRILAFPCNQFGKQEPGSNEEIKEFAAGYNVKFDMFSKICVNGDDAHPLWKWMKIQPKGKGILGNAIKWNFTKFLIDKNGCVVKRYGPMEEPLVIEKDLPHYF

Structure (SMILES): CC1=C(c2csc(Br)n2)C/C(=N\OCC(=O)Nc2ccc3oc(=O)c(C)cc3c2)C1=O
- CC50 [1]: > 20 µM
- CC50 [2]: > 20 µM
- CC50 [3]: > 20 µM

Structure (SMILES): C#CCO/N=C1\CC(c2csc(Br)n2)=C(C)C1O (configuration not stated)
- CC50 [1]: > 20 µM
- CC50 [2]: > 20 µM
- CC50 [3]: > 20 µM

Structure (SMILES): C#Cc1nc(C2=C(C)C(OC(=O)c3ccccc3)/C(=N\OC(=O)c3ccccc3)C2)cs1 (configuration not stated)
- CC50 [4]: 0.58 µM
- CC50 [1]: 0.54 µM
- CC50 [5]: 0.84 µM
- CC50 [2]: 0.08 µM
- CC50 [6]: 0.22 µM
- CC50 [3]: 0.55 µM

Structure (SMILES): C#Cc1nc(C2=C(C)C(NC(=O)c3cc4ccc(N(CC)CC)cc4oc3=O)CC2)cs1 (configuration not stated)
- CC50 [1]: 1.2 µM
- CC50 [2]: 4.58 µM
- Activity [7]: inactive
- CC50 [3]: 4.56 µM

Structure (SMILES): C#Cc1nc(C2=C(C)C(OC(=O)CC)/C(=N/OC(=O)CC)C2)cs1 (configuration not stated)
- Activity [8]: Active
- inhibition [9]: Active
- CC50 [4]: 0.59 µM
- Activity [10]: ~60%
- Activity [11]: Toxic
- CC50 [1]: 0.18 µM
- CC50 [5]: 2.06 µM
- Activity [12]: Toxic
- CC50 [2]: 0.15 µM
- Activity [13]: Active
- inhibition [14]: inactive
- CC50 [6]: 13.4 µM
- CC50 [3]: 0.12 µM
- inhibition [15]: Active
- Activity [16]: Active
- Activity [17]: 0.13

- inhibition [18]: Active
- inhibition [14]: inactive
Structure (SMILES): COc1ccc(N(C(=O)CCl)C(C(=O)NCCc2ccccc2)c2cccs2)cc1Cl (configuration not stated)

Structure (SMILES): C#Cc1nc(C2=C(C)C(OC(=O)CCC)/C(=N/OC(=O)CCC)C2)cs1 (configuration not stated)
- CC50 [4]: 0.28 µM
- Activity [11]: Toxic
- CC50 [1]: 0.83 µM
- CC50 [5]: 1.93 µM
- Activity [12]: Toxic
- Activity [19]: ~60%
- CC50 [2]: 0.19 µM
- Activity [20]: Active
- Activity [13]: Active
- CC50 [6]: 5.85 µM
- CC50 [3]: 0.13 µM
- Activity [16]: Active

Structure (SMILES): CC1=C(c2csc(Br)n2)CCC1O (configuration not stated)
- CC50 [1]: > 20 µM
- CC50 [2]: > 20 µM
- CC50 [3]: > 20 µM

Structure (SMILES): C#Cc1nc(C2=C(C)C(=O)NCC2)cs1
- CC50 [4]: 10.9 µM
- CC50 [1]: 9.32 µM
- CC50 [5]: 20.2 µM
- CC50 [2]: 4.89 µM
- CC50 [6]: 7.81 µM
- CC50 [3]: 5.4 µM

Structure (SMILES): C#Cc1nc(C2=C(C)C(O)CC2)cs1 (racemic)
- inhibition [9]: Active
- Activity [21]: Active
- Activity [11]: Non-Toxic
- CC50 [1]: 6.28 µM
- CC50 [5]: 10.3 µM
- Activity [12]: Non-Toxic
- CC50 [2]: 3.07 µM
- Activity [13]: inactive
- inhibition [14]: inactive
- CC50 [6]: 14.9 µM
- Activity [22]: inactive
- Activity [16]: inactive
- Activity [23]: 50%
- Activity [24]: Active

Structure (SMILES): C#Cc1nc(C2=C(C)C(=O)/C(=N/OCC(=O)Nc3ccc4oc(=O)c(C)cc4c3)C2)cs1
- CC50 [1]: > 20 µM
- CC50 [2]: > 20 µM
- CC50 [3]: > 20 µM
